Data published in US20240254119A1 (THIRD HARMONIC BIO, INC., priority 2022, published 2024).

Each compound was assayed against T1, wtKIT (Homo sapiens, UniProt P10721) (assay: HTRF biochemical assay, wtKIT (phosphorylation of a peptide substrate)). Settings: Table 4.
T1 construct: 1888289AM in the reaction mixtures
How it was run: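 HTRF read-out of FAM-peptide (1 µM) phosphorylation after anti-phosphotyrosine antibody addition and EDTA quench. Reaction: 5.0 nM wtKIT, 400 µM ATP, 10 mM Mn2+, HEPES pH 7.5, 1% DMSO, 3 h, 25 °C; optional enzyme-compound preincubation; enzyme level set for 10-20% conversion.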

T1 sequence (P10721 26-976): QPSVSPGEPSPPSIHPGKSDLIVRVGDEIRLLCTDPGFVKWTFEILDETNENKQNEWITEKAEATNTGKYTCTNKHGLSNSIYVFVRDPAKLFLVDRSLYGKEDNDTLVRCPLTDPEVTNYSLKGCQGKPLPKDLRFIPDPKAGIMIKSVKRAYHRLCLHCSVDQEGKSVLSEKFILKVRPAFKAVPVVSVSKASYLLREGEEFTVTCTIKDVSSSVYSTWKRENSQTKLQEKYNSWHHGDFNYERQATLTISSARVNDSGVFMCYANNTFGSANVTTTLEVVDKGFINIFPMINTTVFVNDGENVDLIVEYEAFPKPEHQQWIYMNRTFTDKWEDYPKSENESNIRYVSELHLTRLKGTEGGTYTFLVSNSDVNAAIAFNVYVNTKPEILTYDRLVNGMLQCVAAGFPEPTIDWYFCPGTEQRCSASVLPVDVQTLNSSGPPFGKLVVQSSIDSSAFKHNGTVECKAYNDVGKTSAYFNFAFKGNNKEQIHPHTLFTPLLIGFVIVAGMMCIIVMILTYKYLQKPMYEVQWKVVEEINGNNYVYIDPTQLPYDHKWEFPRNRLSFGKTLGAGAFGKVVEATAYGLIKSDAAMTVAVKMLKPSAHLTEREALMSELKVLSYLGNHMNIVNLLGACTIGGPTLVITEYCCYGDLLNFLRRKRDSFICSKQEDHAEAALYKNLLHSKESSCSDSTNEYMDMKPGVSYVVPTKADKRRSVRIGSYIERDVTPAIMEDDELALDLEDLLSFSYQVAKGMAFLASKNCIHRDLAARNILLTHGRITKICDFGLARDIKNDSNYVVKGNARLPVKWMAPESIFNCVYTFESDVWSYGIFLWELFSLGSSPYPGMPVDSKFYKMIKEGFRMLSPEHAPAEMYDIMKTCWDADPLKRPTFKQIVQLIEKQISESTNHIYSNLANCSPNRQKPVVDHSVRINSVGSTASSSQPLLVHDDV

Structure (SMILES) | IC50 [nM]
Cc1ccc(-c2noc([C@H]3C[C@@H]3F)n2)cc1NC(=O)c1cnn2cccc(F)c12 [Compound I-487] | 50 to 500
Cc1ccc(-c2ncon2)cc1NC(=O)c1cnc2cc(COCC(C)(C)O)ccn12 [Compound I-641, 7-((2-hydroxy-2-methylpropoxy)methyl)-N-(2-methyl-5-(1,2,4-oxadiazol-3-yl)phenyl)imidazo[1,2-a]pyridine-3-carboxamide] | 500 to 5000
Cc1ccc(-c2noc([C@H]3C[C@@H]3F)n2)cc1NC(=O)c1cnc2cc(C(C)(C)CO)ccn12 [Compound I-464] | 50 to 500
Cc1ccn2c(C(=O)Nc3cc(-c4noc(CCC(C)(O)C(F)(F)F)n4)ccc3C)cnc2c1 (single isomer, unassigned) [Compound I-516] | ≤ 50
Cc1ccc(-c2noc([C@H]3C[C@@H]3F)n2)cc1NC(=O)c1cnc2cc(C/C=C/OCCO)ccn12 [Compound I-506, N-[5-[5-[(1R,2S)-2-fluorocyclopropyl]-1,2,4-oxadiazol-3-yl]-2-methyl-phenyl]-7-[(E)-3-(2-hydroxyethoxy)allyl]imidazo[1,2-a]pyridine-3-carboxamide] | ≤ 50
Cc1ccc(-c2noc(-c3ccccc3)n2)cc1NC(=O)c1cnc2cc(COCCO)ccn12 [Compound I-719] | ≤ 50
Cc1ccc(-c2noc(CCC(C)(C)O)n2)cc1NC(=O)c1cnn2ccccc12 [Compound I-563] | 50 to 500
Cc1ccc(-c2noc(CC3CCCO3)n2)cc1NC(=O)c1cnc2cc(Cl)ccn12 (stereo not drawn) [Compound I-615, 7-Chloro-N-[2-methyl-5-[5-(tetrahydrofuran-2-ylmethyl)-1,2,4-oxadiazol-3-yl]phenyl]imidazo[1,2-a]pyridine-3-carboxamide] | ≤ 50
Cc1ccc(-c2noc(C[C@H](O)C(F)F)n2)cc1NC(=O)c1cnc2ccc(-c3cscn3)cn12 [Compound I-560, (S)—N-(5-(5-(3,3-difluoro-2-hydroxypropyl)-1,2,4-oxadiazol-3-yl)-2-methylphenyl)-6-(thiazol-4-yl)imidazo[1,2-a]pyridine-3-carboxamide] | ≤ 50
Cc1ccc(-c2noc([C@H]3C[C@@H]3F)n2)cc1NC(=O)c1cnc2ccc(-c3ccn(C)n3)cn12 [Compound I-531, N-(5-(5-((1R,2S)-2-fluorocyclopropyl)-1,2,4-oxadiazol-3-yl)-2-methylphenyl)-6-(1-methyl-1H-pyrazol-3-yl)imidazo[1,2-a]pyridine-3-carboxamide] | ≤ 50
Cc1ccc(-c2noc([C@H]3C[C@@H]3F)n2)cc1NC(=O)c1cnc2cc(C(C)(C)O)ccn12 [Compound I-456] | ≤ 50
Cc1nc(-c2ccc(C)c(NC(=O)c3cnc4cc(OCCCN5CCCC5)ccn34)c2)no1 [Compound I-629, N-(2-methyl-5-(5-methyl-1,2,4-oxadiazol-3-yl)phenyl)-7-(3-(pyrrolidin-1-yl)propoxy)imidazo[1,2-a]pyridine-3-carboxamide] | ≤ 50
Cc1ccc(-c2noc(CC3COC3)n2)cc1NC(=O)c1cnc2cc(Cl)ccn12 [Compound I-753, 7-Chloro-N-[2-methyl-5-[5-(oxetan-3-ylmethyl)-1,2,4-oxadiazol-3-yl]phenyl]imidazo[1,2-a]pyridine-3-carboxamide] | ≤ 50
Cc1ccc(-c2noc([C@H]3C[C@@H]3F)n2)cc1NC(=O)c1cnc2cc(CCCC(C)(C)O)ccn12 [Compound I-452, N-[5-[5-[(1R,2S)-2-fluorocyclopropyl]-1,2,4-oxadiazol-3-yl]-2-methyl-phenyl]-7-(4-hydroxy-4-methyl-pentyl)imidazo[1,2-a]pyridine-3-carboxamide] | ≤ 50
Cc1ccc(-c2noc([C@H]3C[C@@H]3F)n2)cc1NC(=O)c1cnc2cc(C(C)OCCO)ccn12 (relative stereo) [Compound I-451, N-[5-[5-[(1R,2S)-2-fluorocyclopropyl]-1,2,4-oxadiazol-3-yl]-2-methyl-phenyl]-7-[(1R*)-1-(2-hydroxyethoxy)ethyl]imidazo[1,2-a]pyridine-3-carboxamide] | ≤ 50
Cc1ccn2c(C(=O)Nc3cc(-c4noc(-c5cccnc5)n4)ccc3C)cnc2c1 [Compound I-726] | 50 to 500
COc1ccn2c(C(=O)Nc3cc(-c4noc(CC5COC5)n4)ccc3C)cnc2c1 [Compound I-633, 7-Methoxy-N-[2-methyl-5-[5-(oxetan-3-ylmethyl)-1,2,4-oxadiazol-3-yl]phenyl]imidazo[1,2-a]pyridine-3-carboxamide] | ≤ 50
Cc1ccc(-c2noc([C@H]3C[C@@H]3F)n2)cc1NC(=O)c1cnc2cc(Cl)c(F)cn12 [Compound I-613, 7-Chloro-6-fluoro-N-(5-(5-((1R,2S)-2-fluorocyclopropyl)-1,2,4-oxadiazol-3-yl)-2-methylphenyl)imidazo[1,2-a]pyridine-3-carboxamide] | ≤ 50
Cc1ccc(-c2noc([C@H]3C[C@@H]3F)n2)cc1NC(=O)c1cnc2cc(F)c(Cl)cn12 [Compound I-605] | 50 to 500
Cc1ccc(-c2ncon2)cc1NC(=O)c1cnc2cc(N(C)C)ccn12 [Compound I-718] | ≤ 50
Cc1ccc(-c2noc([C@H]3C[C@@H]3F)n2)cc1NC(=O)c1cnn2cc(CCOCCO)ccc12 [Compound I-503, N-(5-(5-((1R,2S)-2-fluorocyclopropyl)-1,2,4-oxadiazol-3-yl)-2-methylphenyl)-6-(2-(2-hydroxyethoxy)ethyl)pyrazolo[1,5-a]pyridine-3-carboxamide] | ≤ 50
Cc1nc(-c2ccc(C)c(NC(=O)c3cnc4cc(-c5csc(CO)n5)ccn34)c2)no1 [Compound I-594, 7-(2-(hydroxymethyl)thiazol-4-yl)-N-(2-methyl-5-(5-methyl-1,2,4-oxadiazol-3-yl)phenyl)imidazo[1,2-a]pyridine-3-carboxamide] | ≤ 50
Cc1ccc(-c2noc(C[C@H](O)C(F)F)n2)cc1NC(=O)c1cnc2cc(COCc3nc[nH]n3)ccn12 [Compound I-587, N-[5-[5-[(2S)-3,3-difluoro-2-hydroxy-propyl]-1,2,4-oxadiazol-3-yl]-2-methyl-phenyl]-7-(1H-1,2,4-triazol-3-ylmethoxymethyl)imidazo[1,2-a]pyridine-3-carboxamide] | ≤ 50
CCNc1ccn2c(C(=O)Nc3cc(-c4ncon4)ccc3C)cnc2c1 [Compound I-706] | ≤ 50
Cc1ccc(-c2noc(CC3COC3)n2)cc1NC(=O)c1cnc2cc(COCC3(O)CC3)ccn12 [Compound I-637] | 50 to 500
Cc1ccc(-c2noc([C@H]3C[C@@H]3F)n2)cc1NC(=O)c1cnc2c(F)c(COCCO)ccn12 [Compound I-472] | 50 to 500
Cc1ccc(-c2noc([C@H]3C[C@@H]3F)n2)cc1NC(=O)c1cnc2cc(COC[C@H](O)C(F)F)ccn12 [Compound I-501, 7-(((S)-3,3-difluoro-2-hydroxypropoxy)methyl)-N-(5-(5-((1R,2S)-2-fluorocyclopropyl)-1,2,4-oxadiazol-3-yl)-2-methylphenyl)imidazo[1,2-a]pyridine-3-carboxamide] | ≤ 50
Cc1ccc(-c2noc(CCC(C)(C)O)n2)cc1NC(=O)c1cnc2cc(COCC(C)(C)O)ccn12 [Compound I-567] | 50 to 500
Cc1ccn2c(C(=O)Nc3cc(-c4noc(-c5ccccc5)n4)ccc3C)cnc2c1 [Compound I-736] | ≤ 50
Cc1ccc(-c2noc(CC(C)O)n2)cc1NC(=O)c1cnc2cc(F)ccn12 (stereo not drawn) [Compound I-606] | 50 to 500
